Where “and” joins values, the source holds several entries; their conditions need not be identical. Equal entries are not always repeated. Where two headings read alike, the source gives them in different places.
Legend:
[1] = test system: HIV-1 Env-pseudoviruses (30-strain panel); test: Neutralization assay, cross-clade 30-strain panel (Env-pseudoviruses, TZM-bl target cells); assay type: cell-based
Experimental: Neutralization was measured using single-round-of-infection HIV-1 Env-pseudoviruses and TZM-bl target cells (ARP Cat No. #8129)[44],[45]. Compounds were prepared at 400 μM with 4% DMSO (dimethyl sulfoxide) in PBS (phosphate-buffered saline) and diluted 20 times as the starting concentration for serial dilution in the neutralization assays. […] After incubation at 37 °C for 2 days, infection of target cells was measured by luciferase activity. Neutralization curves were fit by nonlinear regression using a five-parameter hill slope equation[45].

[2] = biological target: BG505 DS-SOSIP.664 Env trimer (Human immunodeficiency virus 1, UniProt Q2N0S5, A430C/A498C/I200C/I556P/T330N/T602C, form not given); assay type: binding, HIV-1; conditions: ITC, 37 °C
[3] = Human immunodeficiency virus 1, TZM-bl, 242-14 (Clade AG), read-out: IC50
[4] = Human immunodeficiency virus 1, TZM-bl, 247-23 (Clade D), read-out: IC50
[5] = Human immunodeficiency virus 1, TZM-bl, 0330.v4.c3 (Clade A), read-out: IC50
[6] = Human immunodeficiency virus 1, TZM-bl, 426c (Clade C), read-out: IC50
[7] = Human immunodeficiency virus 1, TZM-bl, 7165.18 (Clade B), read-out: IC50
[8] = Human immunodeficiency virus 1, TZM-bl, B41 (Clade B), read-out: IC50
[9] = Human immunodeficiency virus 1, TZM-bl, BJOX028000.10.3 (Clade AE), read-out: IC50
[10] = Human immunodeficiency virus 1, TZM-bl, BL01.DG (Clade B), read-out: IC50
[11] = Human immunodeficiency virus 1, TZM-bl, C4118.09 (Clade AE), read-out: IC50
[12] = Human immunodeficiency virus 1, TZM-bl, CAP210.E8 (Clade C), read-out: IC50
[13] = Human immunodeficiency virus 1, TZM-bl, CH119.10 (Clade BC), read-out: IC50
[14] = Human immunodeficiency virus 1, TZM-bl, CNE10 (Clade B), read-out: IC50
[15] = Human immunodeficiency virus 1, TZM-bl, CNE20 (Clade BC), read-out: IC50
[16] = Human immunodeficiency virus 1, TZM-bl, CNE56 (Clade AE), read-out: IC50
[17] = Human immunodeficiency virus 1, TZM-bl, DJ263.8 (Clade AG), read-out: IC50
[18] = Human immunodeficiency virus 1, TZM-bl, DU156.12 (Clade C), read-out: IC50
[19] = Human immunodeficiency virus 1, TZM-bl, Geomean, 30-strain panel, read-out: Geometric mean IC50
[20] = Human immunodeficiency virus 1, TZM-bl, KER2008.12 (Clade A), read-out: IC50
[21] = Human immunodeficiency virus 1, TZM-bl, MB201.A1 (Clade A), read-out: IC50
[22] = Human immunodeficiency virus 1, TZM-bl, NKU3006.ec1 (Clade D), read-out: IC50
[23] = Human immunodeficiency virus 1, TZM-bl, P0402.c2.11 (Clade G), read-out: IC50
[24] = Human immunodeficiency virus 1, TZM-bl, PVO.04 (Clade B), read-out: IC50
[25] = Human immunodeficiency virus 1, TZM-bl, R3265.c6 (Clade AE), read-out: IC50
[26] = Human immunodeficiency virus 1, TZM-bl, REJO.67 (Clade B), read-out: IC50
[27] = Human immunodeficiency virus 1, TZM-bl, T253-11 (Clade AG), read-out: IC50
[28] = Human immunodeficiency virus 1, TZM-bl, T280-5 (Clade AG), read-out: IC50
[29] = Human immunodeficiency virus 1, TZM-bl, ZM106.9 (Clade C), read-out: IC50

Which results are given for COc1cnc(-n2cnc(C)n2)c2[nH]cc(C(=O)C(=O)N3CCN(C(=O)c4ccccc4)CC3)c12 [BMS-626529]?
IC50 ([1]; Geomean, 30-strain panel, read-out: Geometric mean IC50): ~40 nM; IC50 [1, 3]: 24 nM; IC50 [1, 4]: 9 nM; IC50 [1, 5]: 185 nM; IC50 [1, 6]: 5 nM; IC50 [1, 7]: 20 nM; IC50 [1, 8]: 0.7 nM; IC50 [1, 9]: > 20000 nM; IC50 [1, 10]: 12400 nM; IC50 [1, 11]: 6210 nM; IC50 [1, 12]: 66 nM; IC50 [1, 13]: 5 nM; IC50 [1, 14]: 2 nM; IC50 [1, 15]: 878 nM; IC50 [1, 16]: > 20000 nM; IC50 [1, 17]: 12 nM; IC50 [1, 18]: 2 nM; IC50 [1, 19]: > 40 nM; IC50 [1, 20]: 758 nM; IC50 [1, 21]: 474 nM; IC50 [1, 22]: 2 nM; IC50 [1, 23]: 17 nM; IC50 [1, 24]: 0.9 nM; IC50 [1, 25]: 5840 nM; IC50 [1, 26]: 205 nM; IC50 [1, 27]: 0.5 nM; IC50 [1, 28]: 3 nM; IC50 [1, 29]: 16 nM; IC50 ([1]; Human immunodeficiency virus 1, TZM-bl, read-out: IC50): 5 nM; -TΔS [2]: +7.7 kcal/mol; ΔG [2]: -9.1 kcal/mol; ΔH [2]: -16.8 kcal/mol

Which results are given for COc1cnc(-c2csc(C(=O)NCCO)n2)c2[nH]cc(C(=O)C(=O)N3CCC(=C(C#N)c4ccccc4)CC3)c12 [BMS-818251]?
IC50 ([1]; Human immunodeficiency virus 1, TZM-bl): < 0.3 nM and < 0.0002 µg/mL; IC50 [1, 3]: < 0.3 nM; IC50 ([1]; Human immunodeficiency virus 1, TZM-bl, 242-14.SG3 (Clade AG), read-out: IC50): < 0.2 ng/mL; IC50 [1, 4]: < 0.3 nM; IC50 ([1]; Human immunodeficiency virus 1, TZM-bl, 247-23.SG3 (Clade D), read-out: IC50): < 0.2 ng/mL; IC50 [1, 5]: 4 nM; IC50 ([1]; Human immunodeficiency virus 1, TZM-bl, 0330.v4.c3.SG3 (Clade A), read-out: IC50): 2.3 ng/mL; IC50 [1, 6]: 0.4 nM; IC50 ([1]; Human immunodeficiency virus 1, TZM-bl, 426c.SG3 (Clade C), read-out: IC50): < 0.2 ng/mL; IC50 [1, 7]: 13 nM; IC50 ([1]; Human immunodeficiency virus 1, TZM-bl, 7165.18.SG3 (Clade B), read-out: IC50): 7.4 ng/mL; IC50 ([1]; Human immunodeficiency virus 1, TZM-bl, A03349M1.vrc4a.SG3 (Clade D), read-out: IC50): < 0.2 ng/mL; IC50 [1, 8]: < 0.3 nM; IC50 ([1]; Human immunodeficiency virus 1, TZM-bl, B41.SG3 (Clade B), read-out: IC50): < 0.2 ng/mL; IC50 [1, 9]: 733 nM; IC50 ([1]; Human immunodeficiency virus 1, TZM-bl, BJOX028000.10.3.SG3 (Clade AE), read-out: IC50): 418 ng/mL; IC50 [1, 10]: 533 nM; IC50 ([1]; Human immunodeficiency virus 1, TZM-bl, BL01.DG.SG3 (Clade B), read-out: IC50): 304 ng/mL; IC50 [1, 11]: 89 nM; IC50 ([1]; Human immunodeficiency virus 1, TZM-bl, C4118.09.SG3 (Clade AE), read-out: IC50): 50.7 ng/mL; IC50 [1, 12]: 22 nM; IC50 ([1]; Human immunodeficiency virus 1, TZM-bl, CAP210.E8.SG3 (Clade C), read-out: IC50): 12.5 ng/mL; IC50 [1, 13]: < 0.3 nM; IC50 ([1]; Human immunodeficiency virus 1, TZM-bl, CH119.10.SG3 (Clade BC), read-out: IC50): < 0.2 ng/mL; IC50 [1, 14]: < 0.3 nM; IC50 ([1]; Human immunodeficiency virus 1, TZM-bl, CNE10.SG3 (Clade B), read-out: IC50): < 0.2 ng/mL; IC50 [1, 15]: 6 nM; IC50 ([1]; Human immunodeficiency virus 1, TZM-bl, CNE20.SG3 (Clade BC), read-out: IC50): 3.4 ng/mL; IC50 [1, 16]: 471 nM; IC50 ([1]; Human immunodeficiency virus 1, TZM-bl, CNE56.SG3 (Clade AE), read-out: IC50): 268 ng/mL; IC50 [1, 17]: < 0.3 nM; IC50 ([1]; Human immunodeficiency virus 1, TZM-bl, DJ263.8.SG3 (Clade AG), read-out: IC50): < 0.2 ng/mL; IC50 [1, 18]: < 0.3 nM; IC50 ([1]; Human immunodeficiency virus 1, TZM-bl, DU156.12.SG3 (Clade C), read-out: IC50): < 0.2 ng/mL; IC50 [1, 19]: ~2 nM; IC50 [1, 20]: 11 nM; IC50 ([1]; Human immunodeficiency virus 1, TZM-bl, KER2008.12.SG3 (Clade A), read-out: IC50): 6.3 ng/mL; IC50 [1, 21]: 14 nM; IC50 ([1]; Human immunodeficiency virus 1, TZM-bl, MB201.A1.SG3 (Clade A), read-out: IC50): 8 ng/mL; IC50 [1, 22]: < 0.3 nM; IC50 ([1]; Human immunodeficiency virus 1, TZM-bl, NKU3006.ec1.SG3 (Clade D), read-out: IC50): < 0.2 ng/mL; IC50 [1, 23]: < 0.3 nM; IC50 ([1]; Human immunodeficiency virus 1, TZM-bl, P0402.c2.11.SG3 (Clade G), read-out: IC50): < 0.2 ng/mL; IC50 [1, 24]: < 0.3 nM; IC50 ([1]; Human immunodeficiency virus 1, TZM-bl, PVO.04.SG3 (Clade B), read-out: IC50): < 0.2 ng/mL; IC50 [1, 25]: 32 nM; IC50 ([1]; Human immunodeficiency virus 1, TZM-bl, R3265.c6.SG3 (Clade AE), read-out: IC50): 18.2 ng/mL; IC50 [1, 26]: 450 nM; IC50 ([1]; Human immunodeficiency virus 1, TZM-bl, REJO.67.SG3 (Clade B), read-out: IC50): 256 ng/mL; IC50 [1, 27]: < 0.3 nM; IC50 ([1]; Human immunodeficiency virus 1, TZM-bl, T253-11.SG3 (Clade AG), read-out: IC50): < 0.2 ng/mL; IC50 [1, 28]: < 0.3 nM; IC50 ([1]; Human immunodeficiency virus 1, TZM-bl, T280-5.SG3 (Clade AG), read-out: IC50): < 0.2 ng/mL; IC50 [1, 29]: 0.5 nM; IC50 ([1]; Human immunodeficiency virus 1, TZM-bl, ZM106.9.SG3 (Clade C), read-out: IC50): 0.3 ng/mL; IC50 ([1]; Human immunodeficiency virus 1, TZM-bl, geomean, 30-strain panel, read-out: Geometric mean IC50): < 0.2 ng/mL; IC50 ([1]; Human immunodeficiency virus 1, TZM-bl, read-out: Geometric mean IC50): < 2 nM; -TΔS [2]: +4.5 kcal/mol; ΔG [2]: -10.4 kcal/mol; ΔH [2]: -14.9 kcal/mol; Kd ([2]; read-out: Kd (affinity)): 47 nM

Reference: PMC6318274, “Lattice engineering enables definition of molecular features allowing for potent small-molecule inhibition of HIV-1 entry” (Nature Communications, 2019)
